Measured values from US20050123902A1, “Human papillomavirus inhibitors” (priority 2003, published 2005).

Molecular target: HPV-16 E2 protein (Human papillomavirus type 16, UniProt P03120)
Test: Determination of dissociation constants by surface plasmon resonance (Biacore 3000, captured GST-E2 fusion)
Type: binding
Conditions: steady state model, PBST containing 2% (v/v) DMF, read-out: dissociation constant
Protocol: Surface Plasmon Resonance Instrument. Surface plasmon resonance experiments were performed with a Biacore® 3000 Biosensor (Biacore AB, Uppsala, Sweden). To keep the instrument in good working condition, a series of washing steps were performed on a weekly basis. In addition to the prescribed maintenance washes, the fluidic system was primed three times in a row with the following reagents: 0.5% (w/v) SDS, 6 M urea, 1% (v/v) acetic acid, and 0.2 M NaHCO3. When not in use, a standby program injects water at a flow rate of 5 μL/minute to prevent salt build-up in the lines or integrated fluidic cartridge. Whenever running buffer was changed, the system was primed three times in order to equilibrate the sensor chip and the instrument.
Immobilization of anti-GST Antibody. A CM5 sensor chip was docked and the system was primed three times with filtered and degassed PBST containing 5% (v/v) DMF. Affinity purified and sterile filtered goat-anti-GST IgG (0.8 mg/mL in 150 mM NaCl) from the Biacore GST kit for fusion capture was diluted to 30 μg/mL in 10 mM sodium acetate, pH 5.0 (100 μL per immobilization). Two flow cells were activated with 1:1 NHS:EDC (N-hydroxysuccinimide:[…]) for 8 minutes at a flow rate of 5 μL/min using the “surface preparation: immobilization: amine coupling” wizard application. […]

Sequence of HPV-16 E2 protein (P03120 whole entry, the tested form may be a part): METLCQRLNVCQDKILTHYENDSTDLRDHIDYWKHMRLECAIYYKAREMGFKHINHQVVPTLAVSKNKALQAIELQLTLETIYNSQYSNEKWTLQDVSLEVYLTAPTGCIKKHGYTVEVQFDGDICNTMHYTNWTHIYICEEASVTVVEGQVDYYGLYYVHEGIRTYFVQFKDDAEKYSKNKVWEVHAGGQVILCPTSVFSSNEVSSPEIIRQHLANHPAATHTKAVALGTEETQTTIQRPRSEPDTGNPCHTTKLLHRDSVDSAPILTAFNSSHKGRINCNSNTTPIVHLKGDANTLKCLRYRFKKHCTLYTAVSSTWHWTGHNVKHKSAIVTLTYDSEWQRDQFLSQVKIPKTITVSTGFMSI

Cn1nnnc1SC[C@@H]1C[C@H](c2ccc(CO)cc2)O[C@H](c2ccc(CN)cc2)O1 [compound 2]
Kd: 2.7 nM
